{"source": "paper PMC12512767", "about": "“Discovery of new aurone derivatives as submicromolar CK2 inhibitors” (Journal of Enzyme Inhibition and Medicinal Chemistry, 2025)"}
{"biological_target": "T1, recombinant human protein kinase CK2 alpha subunit (Homo sapiens, UniProt P68400)", "T1 sequence (P68400 whole entry)": "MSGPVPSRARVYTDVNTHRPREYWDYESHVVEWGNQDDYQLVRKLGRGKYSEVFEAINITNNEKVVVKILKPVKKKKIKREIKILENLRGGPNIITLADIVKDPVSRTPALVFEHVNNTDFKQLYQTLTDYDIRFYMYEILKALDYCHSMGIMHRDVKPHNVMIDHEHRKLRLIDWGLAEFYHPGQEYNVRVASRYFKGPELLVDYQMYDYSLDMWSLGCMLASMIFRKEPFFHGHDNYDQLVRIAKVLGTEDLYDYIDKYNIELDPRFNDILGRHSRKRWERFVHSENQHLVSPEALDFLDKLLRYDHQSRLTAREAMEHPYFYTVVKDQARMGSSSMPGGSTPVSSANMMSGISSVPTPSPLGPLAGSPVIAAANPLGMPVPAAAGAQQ", "assay": "Luminescent (Kinase-Glo) CK2 screening assay", "format": "biochemical", "details": "inhibitor 1 μM; ATP 10 µM, peptide substrate RRRDDDSDDD 200 µM; 30 °C, 40 min; triplicate; LI = luciferase inhibition (luminescence lower than control)", "description": "(§1) The study was conducted using recombinant human protein kinase CK2 alpha subunit, obtained using plasmid pZW6 (Addgene, USA, catalogue number 27086), ATP (Sigma-Aldrich, USA, catalogue number A2383) and peptide substrate RRRDDDSDDD (GenScript, USA, catalogue number RP10318). Tris(hydroxymethyl)aminomethane hydrochloride (Tris-HCl) (Sigma-Aldrich, USA, catalogue number 10812846001), KCl (Sigma-Aldrich, USA, catalogue number P3911) and MgCl2 (Sigma-Aldrich, USA, catalogue number 208337) were used to prepare the reaction buffer. Dimethyl sulfoxide (DMSO) (Sigma-Aldrich, USA, catalogue number 472301) was used as a solvent for the compounds. Luminescent assays were performed using Kinase-Glo® kit (Promega, USA, catalogue number V6711). Aurone derivatives were synthesised following the procedure[20] described earlier starting from the benzo[e]benzofuran-1-one intermediate obtained in a known manner. The structures of tested aurone derivatives are given in the Results section.\n(§2) The reaction mixture volume was 50 μl. The reaction buffer contained 2 mM Tris HCl, 5 mM KCl and 1 mM MgCl2, pH 7.5. The concentration of CK2 alpha subunit was 2 mg/l per sample in control and experimental samples. The reaction mixtures contained 0.5 μl of inhibitor solution in DMSO per sample (final inhibitor concentrations were different in luminescent and CE assays) or 0.5 μl of pure DMSO in control and calibration samples. The samples were incubated at 30 °C for 40 min.\nThe luminescent assay measured sample luminescence following the addition of the Kinase-Glo luciferase mixture, with the signal reflecting the remaining ATP content. The final ATP concentration indicates the extent of peptide phosphorylation: higher ATP levels correspond to lower peptide phosphorylation. This method was considered as a rapid and straightforward approach for screening a large number of compounds without quantitatively determining their activity.\nATP and peptide substrate were initially present at concentrations of 10 µM and 200 µM, respectively. Calibration samples, which lacked the enzyme, represented the initial ATP concentration. The inhibitor concentration in experimental samples was 1 µM. Measurements were performed using a LuMate 4400 microplate reader (Awareness Technology, USA). Luminescence was recorded after adding 50 µL of the Kinase-Glo luminescent mixture to each sample. In order to simplify the screening process, no signal–concentration calibration curve was constructed for precise ATP quantification. Instead, luminescence values of experimental and control samples were compared directly with those of enzyme-free calibration samples, which reflected the initial ATP level. The percentage of inhibition was determined by the formula: I=100∗(Me−Mc)/(Mo−Mc)\nI is the inhibition in percent, Me, Mc and Mo are the luminescence of the experimental, calibration and control samples, respectively. The experiments were performed in triplicate, after which the obtained values were averaged.\nThis effect may result from the inhibition of luciferase activity. The decrease in luminescence reflects not increased ATP consumption by CK2 during peptide phosphorylation, but rather reduced oxyluciferin formation – the luminescent product – caused by luciferase inhibition by the test compound. The manufacturer of the Kinase-Glo kit, as well as practical studies of protein kinases claim the possibility of this effect[23]^,[24]. […] Furthermore, some compounds with potential luciferase inhibitory activity could have produced false-negative results.\nThis deviation was most pronounced in samples with low absolute luminescence values (and consequently, low inhibition).", "units": {"I (%) (inhibition)": "%"}}
{"smiles": "O=C1C(=Cc2cccc(O)c2)Oc2ccc3ccccc3c21", "note": "[Compound 40]", "I (%) (inhibition)": "<25"}
{"smiles": "O=C1C(=Cc2ccc(O)c(Br)c2)Oc2c1ccc1ccccc21", "note": "[Compound 34]", "I (%) (inhibition)": "<25"}
{"smiles": "O=C(O)COc1ccc2c(c1)OC(=Cc1ccc(C(=O)O)cc1)C2=O", "note": "[Compound 12]", "I (%) (inhibition)": "<25"}
{"smiles": "O=C1C(=Cc2ccc(O)c(F)c2)Oc2ccc3ccccc3c21", "note": "[BFO24]", "I (%) (inhibition)": "95 ± 23"}
{"smiles": "O=C1/C(=C/c2ccccc2O)Oc2cc(O)ccc21", "note": "[Compound 3]", "I (%) (inhibition)": "<25"}
{"smiles": "Cc1cc(/C=C2\\Oc3cc(C)c(Cl)c(C)c3C2=O)ccc1O", "note": "[Compound 20]", "I (%) (inhibition)": "<25"}
{"smiles": "O=C1C(=Cc2cc(Cl)c(O)c(Cl)c2)Oc2c1ccc1ccccc21", "note": "[Compound 33]", "I (%) (inhibition)": "<25"}
{"smiles": "O=C(O)COc1ccc2c(c1)OC(=Cc1cccc(F)c1)C2=O", "note": "[Compound 11]", "I (%) (inhibition)": "<25"}
{"smiles": "COc1cccc(C=C2Oc3ccccc3C2=O)c1O", "note": "[Compound 2]", "I (%) (inhibition)": "<25"}
{"smiles": "O=C1C(=Cc2ccc(O)c(Cl)c2)Oc2ccc3ccccc3c21", "note": "[BFO25]", "I (%) (inhibition)": "88 ± 11"}
{"smiles": "COc1ccc2c(c1)OC(=Cc1cccc(O)c1)C2=O", "note": "[Compound 8]", "I (%) (inhibition)": "<25"}
{"smiles": "O=C1C(=Cc2cc(Br)c(O)c(Br)c2)Oc2c1ccc1ccccc21", "note": "[Compound 35]", "I (%) (inhibition)": "39 ± 14"}
{"smiles": "COc1cc(C=C2Oc3ccc4ccccc4c3C2=O)ccc1O", "note": "[BFO23]", "I (%) (inhibition)": "85 ± 14"}
{"smiles": "COc1cc(C=C2Oc3ccc4ccccc4c3C2=O)cc([N+](=O)[O-])c1O", "note": "[BFO26]", "I (%) (inhibition)": "90 ± 7"}
{"smiles": "O=C1C(=Cc2ccc(O)c(Br)c2)Oc2ccc3ccccc3c21", "note": "[BFO27]", "I (%) (inhibition)": "86 ± 1"}
{"smiles": "CCOc1cc(/C=C2\\Oc3cc(O)ccc3C2=O)ccc1O", "note": "[Compound 6]", "I (%) (inhibition)": "<25"}
{"smiles": "COc1cc(C=C2Oc3cc(O)ccc3C2=O)cc(Cl)c1O", "note": "[Compound 5]", "I (%) (inhibition)": "48 ± 21"}
{"smiles": "O=C1C(=Cc2ccccc2O)Oc2ccc(O)cc21", "note": "[Compound 13]", "I (%) (inhibition)": "<25"}
{"smiles": "O=C(O)c1ccc(C=C2Oc3ccc4ccccc4c3C2=O)cc1", "note": "[Compound 39]", "I (%) (inhibition)": "69 ± 24"}
{"smiles": "O=C1C(=Cc2ccc(O)c([N+](=O)[O-])c2)Oc2c1ccc1ccccc21", "note": "[BFO22]", "I (%) (inhibition)": "80 ± 13"}
{"smiles": "O=C1C(=Cc2ccc(O)cc2)Oc2ccc3ccccc3c21", "note": "[Compound 38]", "I (%) (inhibition)": "<25"}
{"smiles": "Cc1cc2c(c(C)c1Cl)C(=O)C(=Cc1ccc(O)c(F)c1)O2", "note": "[Compound 21]", "I (%) (inhibition)": "<25"}
{"smiles": "COc1ccc2c(c1)OC(=Cc1ccc(O)c(OC)c1)C2=O", "note": "[Compound 10]", "I (%) (inhibition)": "27 ± 19"}
{"smiles": "O=C1/C(=C/c2ccc(O)c(F)c2)Oc2ccccc21", "note": "[Compound 1]", "I (%) (inhibition)": "36 ± 12"}
{"smiles": "O=C1C(=Cc2ccc(O)c(F)c2)Oc2ccc(Cl)cc21", "note": "[Compound 16]", "I (%) (inhibition)": "<25"}
{"smiles": "COc1cc(C=C2Oc3c(ccc4ccccc34)C2=O)ccc1O", "note": "[Compound 28]", "I (%) (inhibition)": "<25"}
{"smiles": "Cc1cc(C=C2Oc3ccc(Br)cc3C2=O)ccc1O", "note": "[Compound 14]", "I (%) (inhibition)": "<25"}
{"smiles": "O=C(O)c1ccc(C=C2Oc3c(ccc4ccccc34)C2=O)cc1", "note": "[Compound 22]", "I (%) (inhibition)": "<25"}
{"smiles": "COc1ccc2c(c1)OC(=Cc1ccccc1O)C2=O", "note": "[Compound 7]", "I (%) (inhibition)": "<25"}
{"smiles": "O=C1C(=Cc2ccc(O)c(Cl)c2)Oc2c1ccc1ccccc21", "note": "[Compound 32]", "I (%) (inhibition)": "68 ± 15"}
{"smiles": "O=C1C(=Cc2ccc(O)cc2)Oc2c1ccc1ccccc21", "note": "[Compound 23]", "I (%) (inhibition)": "<25"}
{"smiles": "O=C(O)c1cc(C=C2Oc3c(ccc4ccccc34)C2=O)ccc1O", "note": "[Compound 31]", "I (%) (inhibition)": "<25"}
{"smiles": "COc1ccc2c(c1)OC(=Cc1ccc(O)cc1)C2=O", "note": "[Compound 9]", "I (%) (inhibition)": "<25"}
{"smiles": "Cc1cc(C=C2Oc3ccc(Cl)cc3C2=O)ccc1O", "note": "[Compound 17]", "I (%) (inhibition)": "<25"}
{"smiles": "Cc1cc(C=C2Oc3c(Cl)ccc(Cl)c3C2=O)ccc1O", "note": "[Compound 18]", "I (%) (inhibition)": "<25"}
{"smiles": "O=C(O)c1cc(C=C2Oc3ccc4ccccc4c3C2=O)ccc1O", "note": "[Compound 48]", "I (%) (inhibition)": "32 ± 24"}
{"smiles": "O=C1C(=Cc2ccc(O)c(F)c2)Oc2c(Cl)ccc(Cl)c21", "note": "[Compound 19]", "I (%) (inhibition)": "61 ± 15"}
{"smiles": "O=C1C(=Cc2ccc(O)c(F)c2)Oc2c1ccc1ccccc21", "note": "[Compound 36]", "I (%) (inhibition)": "<25"}
{"smiles": "O=C1/C(=C/c2cc(Br)c(O)c(Br)c2)Oc2ccc3ccccc3c21", "note": "[Compound 54]", "I (%) (inhibition)": "69 ± 1"}
{"smiles": "O=C1C(=Cc2ccc(O)c(O)c2)Oc2ccc3ccccc3c21", "note": "[Compound 41]", "I (%) (inhibition)": "<25"}
{"smiles": "O=C1C(=Cc2ccc(O)c(F)c2)Oc2ccc(Br)cc21", "note": "[Compound 15]", "I (%) (inhibition)": "<25"}
{"smiles": "O=C(O)c1ccc(C=C2Oc3cc(O)ccc3C2=O)cc1", "note": "[Compound 4]", "I (%) (inhibition)": "41 ± 9"}
{"smiles": "COc1cc(C=C2Oc3ccc4ccccc4c3C2=O)cc(Cl)c1O", "note": "[Compound 52]", "I (%) (inhibition)": "46 ± 15"}
{"smiles": "Cc1cc(C=C2Oc3ccc4ccccc4c3C2=O)ccc1O", "note": "[Compound 45]", "I (%) (inhibition)": "<25"}
{"smiles": "O=C1C(=Cc2cc(Cl)c(O)c(Cl)c2)Oc2ccc3ccccc3c21", "note": "[Compound 51]", "I (%) (inhibition)": "78 ± 22"}
{"biological_target": "T1, recombinant human protein kinase CK2 alpha subunit", "assay": "Capillary electrophoresis (CE) CK2 assay", "format": "biochemical", "details": "ATP 100 µM, peptide substrate 100 µM; 30 °C, 40 min; triplicate; Hill fit", "description": "as §1, §2\nThe initial concentrations of ATP and peptide substrate were 100 µM. The reaction was stopped by adding 100 μl of 20 mM EDTA disodium salt. All IC50 studies were performed in triplicate. Mean conversion values for each concentration were used for construction of the conversion-versus-concentration curves and IC50 determination.\nThe conversion was determined by the formula: C=100∗P/P+N\nC is the conversion in percent, P is the peak area of the phosphorylated product, and N is the peak area of the substrate.\nInhibition was calculated using the formula: I=100∗ Co−Ce/Co\nI – inhibition in percent, Со – conversion in control sample, Се – conversion in experimental sample.\nFor the tested compounds, inhibition curves were plotted as a function of concentration and fitted using the Hill equation: y=x^n/k^n+x^n y – inhibition in percent, x – inhibitor concentration, k – IC50 value, n – Hill coefficient.\nInhibition curves were built using at least four data points, with additional concentrations tested for some compounds to refine the curve’s shape. The IC50 value was determined from the fitted curve as the concentration producing 50% inhibition.\nAll electrophoretic separations were performed with a capillary electrophoresis system Сapel-105M (Lumex). Fused silica (Lumex) of a total length of 75 cm (effective length 65 cm) with inner diameter 50 μm was used. Before use, fused silica was washed for 5 min with 0.1 M HCl solution, then 5 min with distilled water, then 5 min with 0.1 M NaOH solution, again for 5 min with distilled water and for 5 min with background electrolyte (BGE).\nA 150 mM orthophosphoric acid (pH 1.2) was used as BGE. Before electrophoretic separation, 350 μl of deionised water was added to the samples. Samples were introduced hydrodynamically at 900 mbar*s. The electrophoresis voltage was 25 kV. Electrophoretic separation was carried out in positive polarity. Detection conducted at a wavelength of 192 nm. Instrument control, data collection and integration were performed with Elforun (Lumex) software.", "units": {"IC50": "nM"}}
{"smiles": "O=C1C(=Cc2ccc(O)c(F)c2)Oc2ccc3ccccc3c21", "note": "[BFO24]", "IC50": 220}
{"smiles": "O=C1C(=Cc2ccc(O)c(Cl)c2)Oc2ccc3ccccc3c21", "note": "[BFO25]", "IC50": 3}
{"smiles": "COc1cc(C=C2Oc3ccc4ccccc4c3C2=O)ccc1O", "note": "[BFO23]", "IC50": 130}
{"smiles": "COc1cc(C=C2Oc3ccc4ccccc4c3C2=O)cc([N+](=O)[O-])c1O", "note": "[BFO26]", "IC50": 130}
{"smiles": "O=C1C(=Cc2ccc(O)c(Br)c2)Oc2ccc3ccccc3c21", "note": "[BFO27]", "IC50": 13}
{"smiles": "O=C1C(=Cc2ccc(O)c([N+](=O)[O-])c2)Oc2c1ccc1ccccc21", "note": "[BFO22]", "IC50": 680}
